Measurements as given in publication PMC10058583, “Development of Novel Fluorinated Polyphenols as Selective Inhibitors of DYRK1A/B Kinase for Treatment of Neuroinflammatory Diseases including Parkinson’s Disease” (Pharmaceuticals, 2023).
Like-named read-outs stand apart in the source and are kept apart here.

Experiments:
[1] = target: T1, human DYRK2 isoform 1 (6xHis-tagged) (Homo sapiens, UniProt Q92630); assay: ELISA-based non-radioactive kinase assay, DYRK2; assay type: biochemical
T1 sequence (Q92630 74-601 limits assumed): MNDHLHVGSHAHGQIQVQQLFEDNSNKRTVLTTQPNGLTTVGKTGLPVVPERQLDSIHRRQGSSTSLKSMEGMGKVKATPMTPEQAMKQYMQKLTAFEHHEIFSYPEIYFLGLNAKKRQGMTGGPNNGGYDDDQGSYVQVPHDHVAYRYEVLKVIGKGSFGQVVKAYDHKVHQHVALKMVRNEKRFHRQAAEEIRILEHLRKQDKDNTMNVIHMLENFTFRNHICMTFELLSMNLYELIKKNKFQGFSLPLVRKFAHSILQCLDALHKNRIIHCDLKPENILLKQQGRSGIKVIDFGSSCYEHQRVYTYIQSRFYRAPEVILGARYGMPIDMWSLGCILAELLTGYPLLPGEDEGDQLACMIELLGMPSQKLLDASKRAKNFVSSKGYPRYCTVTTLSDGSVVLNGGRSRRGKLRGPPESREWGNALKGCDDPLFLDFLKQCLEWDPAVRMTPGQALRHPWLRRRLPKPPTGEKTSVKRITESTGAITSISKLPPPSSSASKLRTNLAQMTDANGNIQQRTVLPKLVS
Description: (§1) DYRK1B was prepared from human DYRK1B isoform p65 as glutathione S-transferase fusion protein, and DYRK2 was prepared from human DYRK2 isoform 1 as 6xHis-tagged protein, as previously described.
(§2) For DYRK2, the reactions were performed exactly as described for DYRK1A. For DYRK1B, the assays were similarly conducted but with 30 ng GST-DYRK1B and a kinase reaction time of 60 min.

DYRK2 = settings: read-out: published IC50 DYRK2; cited from earlier work
[2] = target: T2, 6xHis-tagged rat-truncated DYRK1A (residues 1-497) (Rattus norvegicus, UniProt Q63470); assay: ELISA-based non-radioactive kinase assay, DYRK1A; assay type: biochemical
T2 construct: 6xHis-tagged rat-truncated DYRK1A (residues 1-497); 6xHis; made in house

DYRK1A = settings: cited from earlier work
DYRK1B = settings: read-out: published IC50 DYRK1B; cited from earlier work
[3] = target: T3, human DYRK1B isoform p65 (GST fusion) (Homo sapiens, UniProt Q9Y463); assay: ELISA-based non-radioactive kinase assay, DYRK1B; assay type: biochemical; settings: 30 ng GST-DYRK1B, 60 min reaction
T3 construct: made in house
Description: as §1, §2

[4] = Pharmacokinetic studies in C57BL/6 mice (plasma and tissues); assay type: in vivo, mouse; settings: PO (100 mg/kg)
Description: To overcome the generally poor PK profile of catechins, we developed a proprietary formulation that allows for the delivery of these drugs in high concentrations for oral (PO) or intranasal (IN) use. Our liquid formulation is based on the solubilizer and penetration enhancer (2-hydroxypropyl)-β-cyclodextrin (HP-β-CD), PEG-400, and water. This vehicle allows us to achieve high drug concentration in dosing solution (up to 20% w/w) when needed. PK studies were conducted for 1c in adult male and female C57BL/6 mice (n = 3/sex/time point) using (1) a single IV dose (5 mg/kg), (2) an IN dose (60 mg/kg, 5 µL of a clear solution/nostril/twice), and (3) a single PO dose (100 mg/kg). We analyzed the concentration of the drug in several tissues, including the brain, lungs, liver, and plasma. We observed that this class of molecules is stable in circulation; however, when the tissues are harvested for bioanalytical work, the drug undergoes rapid degradation, probably because of the direct contact with oxygen and metals, which catalyzes its rapid degradation/oxidation. We were able to stabilize the drug in blood by the immediate addition of ascorbic acid and TCEP [29]; however, the same was not possible with solid organs such as the brain and liver, which need to be collected through surgery and homogenized before any stabilizing agent can be added. Therefore, tissue PK data tend to vary.
C57BL/6J mice were given a single dose of drug via the IN or PO route. […] For PO delivery, we replaced water with saline. The volume for IN delivery was 5 µL/nostril, and the volume used for oral delivery was 10 mL/kg. After sacrifice, blood (500 µL) was collected into K2EDTA microtubes and kept on ice all times (must be centrifuged within 30 min of collection). Blood was centrifuged in EDTA vacuum at 4 °C at 15,000× g for 4 min; ~250 µL of plasma was collected into polyethylene tubes containing 50 µL of AA/TCEP stabilizing solution (20 mM ascorbic acid and 13 mM TCEP in 50 mM K2HPO4 buffer; the pH of the solution was adjusted to 6.5 using 2 M NaOH). Then, 200 µL of the collected plasma was mixed with (1) 24 µL of a solution of 10% ascorbic acid and 0.1% EDTA in 40 mM NaH2PO4; (2) 40 µL of 50 mM sodium phosphate (pH 7.4); (3) 500 units of β-D-glucuronidase type X-A from Escherichia coli (Sigma Chemical Co, St Louis, MO, USA), and (4) 4 units of sulfatase type VIII from abalone entrails (Sigma Chemical Co). The mixture was incubated at 37 °C for 45 min. Plasma was then extracted by the addition of 0.5 mL ACN; the mixture was vortex-mixed for 2 min, then snap-frozen with isopropanol/carbon dioxide dry ice, and the upper layer of ACN was removed. The process was repeated another 2 times. The ACN fractions were pooled into a polyethylene tube kept on ice. The combined fractions were evaporated under a gentle stream of nitrogen at ambient temperature. The residue obtained after evaporation was reconstituted in 200 µL of 75 mM citric acid//25 mM ammonium acetate: ACN (75:25 by vol), and vortexed vigorously for 5 min, and 20 µL of the resulting solution was injected into the LC-MS/MS column.
Drug analysis in tissues: About ~0.4 g of the tissue was homogenized with 1 mL of ice-cold 0.4 M sodium phosphate buffer containing 6 mg of ascorbic acid and 0.5 mg of Na2EDTA (final pH of 6.5). After centrifugation at 4 °C at 15,000× g for 4 min, the supernatant was collected into polyethylene tubes containing 50 µL of the AA/TCEP stabilizing solution. Then 1 U of sulfatase and 250 U of β-glucuronidase were added to the abovementioned homogenized mixture. Samples were incubated at 37 °C for 45 min, then extracted, dried, and resuspended in a manner similar to that for plasma. Samples were then analyzed by LC-MS/MS.

[5] = tested on: LPS-induced inflammation in C57BL/6J mice; assay: LPS-induced inflammation model; assay type: in vivo, mouse; settings: positive control 1 mg/kg PO, LPS i.p. 750 µg/kg
Description: Neuroinflammation is an important factor contributing to cognitive impairment and neurodegenerative diseases such as PD, and the administration of LPS is frequently used to study neuroinflammation-associated diseases in mice.
Each group consisted of six male mice. […] Animals were pretreated for 3 days with the drug of choice; then, treatment with LPS commenced on day 0, and on the 5th day of LPS treatment, the drug was administered half an hour before LPS injection. One hour after LPS treatment, the animals were anesthetized with a mixture of ketamine, xylazine 2%, atropine, and saline (4:2.5:1:2.5). The body temperature of mice under anesthesia was maintained by applying a heating blanket and monitored using a rectal thermometer. After anesthesia, the animals underwent cardiac perfusion with ice-cold saline for three minutes (3 mL/minute via peristaltic pump) via the left ventricle. The right atrium was cut as an outflow route. The right hemisphere was post-fixed overnight in 4% PFA in PBS at 4 °C and stored in 1xPBS containing 0.1% (v/w) sodium azide at 4 °C. The left hemisphere, hippocampus, cortex, midbrain, and brainstem were microdissected, immersed in liquid nitrogen in separate tubes (with one-fifth of the rest of the brain tissue), and stored in microfuge tubes at −80°. TNFα (in both plasma and the hippocampus) was analyzed with ELISA, and the p-tau (AT-8 antibody) level was recorded in the hippocampus and cortex with WB.

[6] = both sexes, C57BL/6, mouse, plasma

T3 sequence (Q9Y463 1-589 isoform Q9Y463-2): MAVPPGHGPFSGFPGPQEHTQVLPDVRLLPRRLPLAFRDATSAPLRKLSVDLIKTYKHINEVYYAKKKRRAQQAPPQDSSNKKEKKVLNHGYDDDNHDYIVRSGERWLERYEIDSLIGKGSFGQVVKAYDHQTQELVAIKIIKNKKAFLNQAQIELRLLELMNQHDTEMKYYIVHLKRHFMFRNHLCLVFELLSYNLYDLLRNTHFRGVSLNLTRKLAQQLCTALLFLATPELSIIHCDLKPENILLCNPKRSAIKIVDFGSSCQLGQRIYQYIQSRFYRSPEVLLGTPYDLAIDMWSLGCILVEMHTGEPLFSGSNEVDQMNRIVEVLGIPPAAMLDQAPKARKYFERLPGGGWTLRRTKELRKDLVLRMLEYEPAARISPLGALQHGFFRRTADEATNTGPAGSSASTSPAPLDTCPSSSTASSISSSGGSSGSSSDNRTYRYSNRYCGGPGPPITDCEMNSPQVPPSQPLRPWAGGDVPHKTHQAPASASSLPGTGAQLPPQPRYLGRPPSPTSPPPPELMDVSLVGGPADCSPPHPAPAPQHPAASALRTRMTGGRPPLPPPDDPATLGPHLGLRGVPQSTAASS

COc1cc(N2CCN(C)CC2)ccc1Nc1nccc(-c2cn(C)c3cnccc23)n1 [AZ-191]
IC50 [1]: 1720 nM
IC50 (DYRK2): 1890 nM
IC50 [2]: 98 nM
IC50 (DYRK1A; read-out: published IC50 DYRK1A): 88 nM
IC50 (DYRK1B): 17 nM

O=C(O[C@@H]1Cc2c(O)cc(O)cc2O[C@H]1c1cc(O)c(O)c(O)c1)c1cc(O)c(O)c(O)c1F [Compound 1a]
IC50 [1]: 258 nM
IC50 ([2]; read-out: DYRK1A IC50): 35 nM
IC50 [3]: 42 nM

O=C(O[C@@H]1Cc2c(O)cc(O)cc2O[C@H]1c1cc(O)c(O)c(O)c1)c1c(F)c(O)c(O)c(O)c1F [Compound 1b]
bioavailability (in words) [4]: much lower than that of 1c
Tlast ([4]; plasma): 24 h
AUC(0-inf) [4, 6]: 472 ng·h/mL
AUC(0-t) [4, 6]: 379 ng·h/mL
Cmax [4, 6]: 131 ng/mL
Tmax [4, 6]: 0.5 h
half-life [4, 6]: 12.7 h
IC50 [1]: 181 nM
improvement in anti-DYRK1A activity compared to EGCG [2]: eightfold
IC50 ([2]; read-out: DYRK1A IC50): 28 nM
IC50 [3]: 45 nM

COc1c(O)c(O)cc(C(=O)O[C@@H]2Cc3c(O)cc(O)cc3O[C@H]2c2cc(O)c(O)c(O)c2)c1F [Compound 1d]
IC50 ([2]; read-out: DYRK1A IC50): 152 nM

COc1c(O)c(O)c(F)c(C(=O)O[C@@H]2Cc3c(O)cc(O)cc3O[C@H]2c2cc(O)c(O)c(O)c2)c1F [Compound 1e]
IC50 ([2]; read-out: DYRK1A IC50): 125 nM

O=C(O[C@@H]1Cc2c(O)cc(O)cc2O[C@H]1c1cc(O)c(O)c(O)c1)c1cc(O)c(O)c(OC(F)F)c1 [Compound 1f]
IC50 ([2]; read-out: DYRK1A IC50): 252 nM

O=C(O[C@@H]1Cc2c(O)cc(O)cc2O[C@H]1c1cc(O)c(O)c(O)c1)c1cc(OC(F)F)c(O)c(O)c1F [Compound 1g]
IC50 ([2]; read-out: DYRK1A IC50): 136 nM

CC(C)Oc1c(O)c(O)c(F)c(C(=O)O[C@@H]2Cc3c(O)cc(O)cc3O[C@H]2c2cc(O)c(O)c(O)c2)c1F [Compound 1h]
IC50 ([2]; read-out: DYRK1A IC50): 356 nM

C[C@@H]1C[C@H]2[C@@H]3CCC4=CC(=O)C=C[C@]4(C)[C@@]3(F)[C@@H](O)C[C@]2(C)[C@@]1(O)C(=O)CO [Dexamethasone, reference compound]
efficacy in plasma [5]: high efficacy

O=C(O[C@@H]1Cc2c(O)cc(O)cc2O[C@@H]1c1cc(O)c(O)c(O)c1)c1cc(O)c(O)c(O)c1 [EGCG, epigallocatechin gallate, reference compound]
AUC(0-inf) [4, 6]: 395 ng·h/mL
AUC(0-t) [4, 6]: 360 ng·h/mL
Cmax [4, 6]: 55 ng/mL
half-life [4, 6]: 5.02 h
bioavailability ([4]; both sexes, C57BL/6, mouse, plasma, po, 100 mg/kg, plasma, read-out: F (absolute bioavailability)): 2%
IC50 [1]: 1490 nM
IC50 (DYRK1A; allosteric inhibitor, read-out: DYRK1A in vitro IC50): 300 to 400 nM

O=C(O[C@@H]1Cc2c(O)cc(O)cc2O[C@H]1c1cc(O)c(O)c(O)c1)c1cc(O)c(O)c(O)c1 [GCG, reference compound]
IC50 [1]: 574 nM

COc1cc(C(=O)OC2Cc3c(O)cc(O)cc3OC2c2cc(O)c(O)c(O)c2)cc(O)c1O (stereo not shown) [GCG-3”OMe, reference compound]
IC50 ([2]; read-out: DYRK1A IC50): 206 nM
